ChEMBL document CHEMBL5385907, “Proline-Hinged α-Helical Peptides Sensitize Gram-Positive Antibiotics, Expanding Their Physicochemical Properties to Be Used as Gram-Negative Antibiotics” (J Med Chem, 2024)
In brackets after ≈: the same amount, converted by molar mass. Activity calls are given as the source filed them. No cut-off for these calls is given here. Residues, ends and D or L forms follow the SMILES beside them. *: point of attachment. X1 = CN(C)c1ccc2c(-c3ccc(C(=O)*)cc3C(=O)[O-])c3ccc(N(C)C)cc3[o+]c2c1; Octanoyl = CCCCCCCC(=O)*

What was measured:
[1] = system: Escherichia coli; experiment: Antibacterial activity against Escherichia coli ATCC 25922 assessed as inhibition of bacterial growth incubated for 18 hrs by two fold serial dilution assay; assay type: functional
[2] = system: Acinetobacter baumannii; experiment: Antibacterial activity against Acinetobacter baumannii ATCC 17978 assessed as inhibition of bacterial growth incubated for 18 hrs by two fold serial dilution assay; assay type: functional
[3] = system: Klebsiella pneumoniae; experiment: Antibacterial activity against Klebsiella pneumoniae ATCC 700603 assessed as inhibition of bacterial growth incubated for 18 hrs by two fold serial dilution assay; assay type: functional
[4] = Hemolytic activity in human blood assessed as hemolysis incubated for 6 hrs by microplate reader analysis; assay type: toxicity, tissue-based
[5] = Hydrophobicity of the compound assessed as retention time by reversed-phase HPLC analysis; assay type: physicochemical
[6] = system: Escherichia coli; experiment: Antibacterial activity against Escherichia coli ATCC 25922 assessed as inhibition of bacterial growth incubated for 18 hrs in presence of rifampicin with calcium and Mg2+ broth media by two fold serial dilution assay; assay type: functional, organism-based
[7] = system: Acinetobacter baumannii; experiment: Antibacterial activity against Acinetobacter baumannii ATCC 17978 assessed as inhibition of bacterial growth incubated for 18 hrs in presence of rifampicin with calcium and Mg2+ broth media by two fold serial dilution assay; assay type: functional, organism-based
[8] = system: Klebsiella pneumoniae; experiment: Antibacterial activity against Klebsiella pneumoniae ATCC 700603 assessed as inhibition of bacterial growth incubated for 18 hrs in presence of rifampicin with calcium and Mg2+ broth media by two fold serial dilution assay; assay type: functional, organism-based
[9] = system: Cell membrane; experiment: Induction of outer membrane permeabilization in Escherichia coli ATCC 25922 assessed as increase in fluorescence by measuring fold change by NPN-dye based fluorescence analysis; assay type: subcellular
[10] = system: Escherichia coli; experiment: Antibacterial activity against Escherichia coli ATCC 25922 assessed as fold increase in bacterial growth inhibition incubated for 1 hr by propidium iodide staining based fluorescence assay; assay type: functional
[11] = system: Escherichia coli; experiment: (§1) Potentiation of rifampicin induced antibacterial activity against NDM1-producing carbapenem-resistant Escherichia coli infected CD1 mouse sepsis model assessed as reduction in bacterial colony forming unit in lung tissue at 25 mg/kg,SC administrated after 2 hrs of post-infection in presence of rifampicin; assay type: functional, organism-based
[12] = system: Escherichia coli; experiment: as §1, with “after 6” for “after 2”; assay type: functional, organism-based
[13] = system: Escherichia coli; experiment: Potentiation of rifampicin induced antibacterial activity against NDM1-producing carbapenem-resistant Escherichia coli infected CD1 mouse sepsis model assessed as reduction in bacterial colony forming unit in blood at 25 mg/kg,SC administrated after 2 hrs of post-infection in presence of rifampicin; assay type: functional
[14] = system: Escherichia coli; experiment: Potentiation of rifampicin induced antibacterial activity against NDM1-producing carbapenem-resistant Escherichia coli infected CD1 mouse sepsis model assessed as reduction in bacterial colony forming unit in blood at 25 mg/kg,SC administrated after 6 hrs of post-infection in presence of rifampicin; assay type: functional
[15] = Cytotoxicity against human HK-2 cells assessed as cell growth inhibition incubated for 24 hrs by WST-1 reagent microplate reader assay; assay type: toxicity, cell-based
[16] = Nephrotoxicity in Sprague-Dawley rat assessed as increase in blood urea nitrogen level at 30 mg/kg,iv administration for 1 hr and measured after 25 hrs; assay type: toxicity, organism-based; conditions: in vivo, 26 h
[17] = Nephrotoxicity in Sprague-Dawley rat assessed as […] in creatinine level at 30 mg/kg,iv administration for 1 hr and measured after 25 hrs; assay type: toxicity, organism-based; conditions: in vivo, 26 h
[18] = Toxicity in male Sprague-Dawley rat assessed as reduction in body weight at 20 mg/kg,iv administration and observed on day 2; assay type: organism-based; conditions: in vivo, 48 h, time 2 day
[19] = Toxicity in male Sprague-Dawley rat assessed as reduction in body weight at 20 mg/kg,iv administration observed on day 14; assay type: organism-based; conditions: in vivo, 336 h, time 14 day
[20] = Toxicity in female Sprague-Dawley rat assessed as reduction in body weight at 20 to 60 mg/kg,iv administration observed on day 2; assay type: organism-based; conditions: in vivo, 48 h, dose 20-60 mg/kg, time 2 day
[21] = Toxicity in male Sprague-Dawley rat assessed as reduction in body weight at 40 mg/kg,iv administration observed on day 14 relative to control; assay type: organism-based; parameters: scale not given: the % may be the effect or the level left; conditions: in vivo, 336 h, time 14 day
[22] = Toxicity in male Sprague-Dawley rat assessed as reduction in body weight at 60 mg/kg,iv administration observed on day 14 relative to control; assay type: organism-based; parameters: scale not given: the % may be the effect or the level left; conditions: in vivo, 336 h, time 14 day
[23] = Toxicity in female Sprague-Dawley rat assessed as reduction in body weight at 20 to 60 mg/kg,iv administration observed on day 4; assay type: organism-based; conditions: in vivo, 96 h, dose 20-60 mg/kg, time 4 day
[24] = Toxicity in male Sprague-Dawley rat assessed as no observed adverse effect level at iv administration and observed on day 14; assay type: organism-based; conditions: in vivo, time 14 day
[25] = Toxicity in female Sprague-Dawley rat assessed as no observed adverse effect level at iv administration and observed on day 14; assay type: organism-based; conditions: in vivo, time 14 day
[26] = AUClast in CD1 mouse at 1 mg/kg,iv administration measured upto 1 hr by LC-MS/MS analysis; assay type: ADME, organism-based; parameters: time < 1 hrs, dose 1 mg/kg, route iv; conditions: in vivo
[27] = AUClast in CD1 mouse at 3 mg/kg,iv administration measured upto 1 hr by LC-MS/MS analysis; assay type: ADME, organism-based; parameters: dose 3 mg/kg, time < 1 hrs, route iv; conditions: in vivo
[28] = AUClast in CD1 mouse at 10 mg/kg,iv administration measured upto 1 hr by LC-MS/MS analysis; assay type: ADME, organism-based; parameters: time < 1 hrs, dose 10 mg/kg, route iv; conditions: in vivo
[29] = Clearance in CD1 mouse at 1 mg/kg,iv administration measured upto 1 hr by LC-MS/MS analysis; assay type: ADME, organism-based; conditions: in vivo
[30] = Clearance in CD1 mouse at 3 mg/kg,iv administration measured upto 1 hr by LC-MS/MS analysis; assay type: ADME, organism-based; conditions: in vivo
[31] = Clearance in CD1 mouse at 10 mg/kg,iv administration measured upto 1 hr by LC-MS/MS analysis; assay type: ADME, organism-based; conditions: in vivo
[32] = AUClast in Sprague-Dawley rat at 3 mg/kg,iv administration measured upto 24 hr by LC-MS/MS analysis; assay type: ADME, organism-based; parameters: time < 24 hrs, dose 3 mg/kg, route iv; conditions: in vivo
[33] = Clearance in Sprague-Dawley rat at 3 mg/kg,iv administration measured upto 24 hr by LC-MS/MS analysis; assay type: ADME, organism-based; conditions: in vivo
[34] = Volume of distribution in Sprague-Dawley rat at 3 mg/kg,iv administration measured upto 24 hr by LC-MS/MS analysis; assay type: ADME, organism-based; conditions: in vivo
[35] = system: Cell membrane; experiment: Induction of outer membrane disruption in Acinetobacter baumannii ATCC 17978 at 5 uM incubated for 30 mins by confocal laser scanning microscopy; assay type: subcellular
[36] = Drug localization in Acinetobacter baumannii ATCC 17978 assessed as increase in fluorescence at cytosol at 5 uM incubated for 30 mins by confocal laser scanning microscopy; assay type: ADME, subcellular; conditions: 0.5 h
[37] = Drug localization in Escherichia coli ATCC 25922 assessed as increase in fluorescence at membrane at […] incubated for 30 mins by confocal laser scanning microscopy; assay type: ADME, cell membranes; conditions: 0.5 h, dose 0.63 µM
[38] = Drug localization in Escherichia coli ATCC 25922 assessed as increase in fluorescence at membrane at […] by fluorescence-activated cell sorting analysis; assay type: ADME, cell membranes; conditions: dose 0.13 µM

For `CCCCCCCC(=O)N[C@@H](CCCCN)C(=O)N[C@@H](CCCCN)C(=O)N[C@@H](C)C(=O)N[C@@H](CC(C)C)C(=O)N[C@@H](CCCCN)C(=O)N[C@@H](CC(C)C)C(=O)N[C@@H](C)C(=O)N[C@@H](CCCCN)C(=O)N[C@@H](CCCCN)C(=O)N1CCC[C@H]1C(=O)N[C@@H](CC(C)C)C(=O)N[C@@H](CCCCN)C(=O)N[C@@H](CC(C)C)C(=O)N[C@@H](CC(C)C)C(=O)N[C@@H](CCCCN)C(N)=O` (HELM PEPTIDE1{[CCCCCCCC(=O)[*:2]].K.K.A.L.K.L.A.K.K.P.L.K.L.L.K.[am]}$$$$V2.0), the MIC [1] was > 80 µM, the MIC [2] was 20 µM (≈ 36.9 µg/mL) and the MIC [3] was > 80 µM. For the same compound, the MHC10 [4] was > 160 µM, the Retention_time [5] was 18.1 min and the Activity [6] was “inactive”. For the same compound, the Activity [7] was “inactive”, the Activity [8] was “inactive” and the fold change (FC) [9] was 10. For the same compound, the “fold change (FC)” value [10] was 10, the Activity [11] was “Active” and the Activity [12] was “Active”. The Activity [13] was >4 log10CFU, the Activity [14] was >4 log10CFU and the IC50 at 24 h [15] was 86.9 µM. The Activity [16] was 19 mg/dL, the Activity [17] was 0.28 mg/dL and the Activity [18] was “Toxic”. For the same compound, the Activity [19] was “Non-Toxic”, the Activity [20] was “Toxic” and the Activity [21] was 9%. The Activity [22] was 9%, the Activity [23] was “Non-Toxic” and the NOAEL at 336 h [24] was 20 mg/kg. For the same compound, the NOAEL at 336 h [25] was 60 mg/kg, the AUClast [26] was 88.9 ng·h/mL and the AUClast [27] was 263 ng·h/mL. The AUClast [28] was 941 ng·h/mL, the clearance [29] was 218 mL/min/kg and the clearance [30] was 182 mL/min/kg. For the same compound, the clearance [31] was 190 mL/min/kg, the AUClast [32] was 246 ng·h/mL and the clearance [33] was 192 mL/min/kg. For the same compound, the Vd [34] was 3.07 L/kg.
With `CCCCCCCC(=O)N[C@@H](CCCCNC(=O)c1ccc(-c2c3ccc(N(C)C)cc3[o+]c3cc(N(C)C)ccc23)c(C(=O)[O-])c1)C(=O)N[C@@H](CCCCN)C(=O)N[C@@H](C)C(=O)N[C@@H](CC(C)C)C(=O)N[C@@H](CCCCN)C(=O)N[C@@H](CC(C)C)C(=O)N[C@@H](C)C(=O)N[C@@H](CCCCN)C(=O)N[C@@H](CCCCN)C(=O)N1CCC[C@H]1C(=O)N[C@@H](CC(C)C)C(=O)N[C@@H](CCCCN)C(=O)N[C@@H](CC(C)C)C(=O)N[C@@H](CC(C)C)C(=O)N[C@@H](CCCCN)C(N)=O` (Octanoyl-K(X1)KALKLAKKPLKLLK-NH2) the Activity [35] was “Active”, the Drug uptake [36] was “Active” and the Drug uptake [37] was “Active”. For the same compound, the Drug uptake [38] was “Active”.
